Tests used:
[1] = test system: panel of organisms in stationary growth phase; conditions: cited from earlier work
MDCK cells = test: cytoskeletal structure (actin and tubulin antibodies, confocal fluorescence microscopy) after cold storage, MDCK cells; type: cell-based; conditions: three days at cold temperatures
From the text: (§1) This Example describes the effect UW solution supplemented with BNP-1 on cytoskeletal structure of kidney cells. Briefly, either MDCK cells or primary kidney cell cultures were stored for three days at cold temperatures in either UW solution, UW solution supplemented with BNP-1, or DMEM. The cells were then labeled with actin and tubulin antibodies and analyzed by confocal fluorescence microscopy. […] In these primary cells, the actin and tubulin filaments maintained a coarse clumpy pattern with considerable cortical condensation near the plasma membrane and only a limited amount of fine fibrillar structure that would be considered more normal.

[2] = test system: primary kidney cell cultures; test: cytoskeletal structure (actin and tubulin antibodies, confocal fluorescence microscopy) after cold storage, primary kidney cell cultures; type: cell-based; conditions: three days at cold temperatures
From the text: as §1

[3] = test system: bacteria, fungi, and enveloped viruses; conditions: cited from earlier work

For “HNP-1: defensin isolated from human PMN's, acycripaciagerrygtciyqgrlwafcc”, the “antimicrobial properties, rank among defensins tested” value [1] is listed as “most potent antimicrobial properties”.

For “rabbit NP-1: rabbit neutrophil defensin, vvcacrralclprerragfcrirgrihplccrr (VVCACRRALCLPRERRAGFCRIRGRIHPLCCRR; listed as Oryctolagus cuniculus)”, the “antimicrobial properties, rank among defensins tested” value [1] is given as “most potent antimicrobial properties”.

In the case of “BNP-1: bovine defensin peptide, SEQ ID NO: 37, rlcrivvirvcr; synthesized by Multiple Peptide Systems (RLCRIVVIRVCR; listed as Bos taurus)”, the “actin and tubulin after storage” value (MDCK cells) is reported as “better maintenance of actin and tubulin” and the “actin and tubulin after storage” value [2] is reported as “the tubulin and actin were better stained and more persistent”.

For “GPNP: guinea pig defensin, rrcicttrtcrfpyrrlgtcifqnrvytfcc (RRCICTTRTCRFPYRRLGTCIFQNRVYTFCC; Guinea pig cytomegalovirus)”, the “spectrum of antimicrobial activity” value [3] is given as “broad spectrum antimicrobial properties verified”.
